Laboratory results published in patent publication US9006241B2, “Pyrimidine derivatives” (Noviga Research AB, priority 2011, dated 2015).

Key:
Format in all cases: cell-based
[1] = tested on: PC-3 (prostate cancer); experiment: FMCA, PC-3; conditions: PC-3 prostate cancer cells
Description: (§1) The Fluorometric Microculture Cytotoxicity Assay, FMCA (Larsson, R., et al.; Anticancer Res, 1989, 9, 1111-1119), is a three day non-clonogenic microplate-based cell viability assay used for measurement of the cytotoxic and/or cytostatic effect of compounds in vitro (Lindhagen, E. et al.; Nat. Protoc., 2008, 3, 1364-1369). FMCA represents a valuable method to measure cytotoxicity in a number of cell types, both cell lines and primary cells from patients (Larsson, R., et al.; Int. J. Cancer, 1992, 50, 177-185; Fridborg, H., et al.; Eur. J. Cancer, 1999. 35, 424-432; Dhar, S., et al.; Br. J. Cancer, 1996, 74, 888-896).
(§2) FMCA is based on the principle that fluorescein diacetate (FDA) is converted to the fluorescent probe fluorescein by esterases in the plasma membranes of living cells. For experiments, 96 or 384-well microplates are prepared with compounds and stored at −70° C. until use. Cells are then seeded into the drug-prepared plates and placed in an incubator for 72 h. On the last day of incubation, the plates are washed and a buffer containing FDA is added and incubated with the cells for 45 minutes. Finally the fluorescence per well is measured in a fluorometer and a Survival Index % (SI) for each compound-treated well is calculated with the equation: Compound-treated cells minus blank divided by control cells minus blank. A high SI-value indicates a large percentage of living cells and vice versa.
(§3) For dose-response experiments, 384-well plates were prepared as follows:
(§4) Compounds of the invention as well comparative kinase inhibitors sorafenib sunitinib, dasatinib, pazopanib and a reference compound disclosed in WO 2009/071535 (compound #107) were diluted with PBS to a concentration ten-times higher than the desired starting concentration. Then, a Biomek 2000 liquid handling system was employed to serially dilute the compounds in a deep-well 384-well plate. From this plate, assay plates containing 5 μl compound per well were prepared with the Biomek 2000. Certain compounds precipitated when diluted with PBS, and these compounds were therefore prepared in a 96-well plate manually as described above using culture medium RPMI 1640 instead of PBS.
(§5) The compounds were also tested at five concentrations, with five times serial dilution on the following cell types: CCRF-CEM, hTERT-RPE1 (normal retinal epithelial cells), hRPTEpiC (normal renal cells), and peripheral blood mononuclear cells (PBMC). Each experiment was performed three times, except for PBMC and hRPTEpiC, which were performed twice. SI-values were calculated, graphs were plotted using GraphPadPrism 5.0 (GraphPad Software Inc. La Jolla, Calif.) and IC50-values for each cell type and compound were determined from the curves.
(§6) The compounds of the invention were also tested on further cancer cell lines related to breast cancer (MDA-MB-231; see e.g. Cailleau, R., et al.; J. Natl. Cancer Inst., 1974, 53, 661-674), teniposide-resistant leukemia (CEM/VM1 see e.g. Danks, M., et al.; Cancer Res., 1987, 47, 1297-1301), leukemia (HL-60; see e.g. Collins, S., et al.; Nature, 1977, 270, 347-349), doxorubicin-resistant lung cancer (H69AR; see e.g. Mirski, S., et al.; Cancer Res., 1987, 47, 2594-2598), myeloma (RPMI 8226; see e.g. Matsuoka, Y., et al.; Proc. Soc. Exp. Biol. Med., 1967, 125, 1246-1250), doxorubicin-resistant myeloma (8226/Dox40; see e.g. Dalton, W., et al.; Blood, 1989, 15, 747-752), lymphoma (U-937, see e.g. Sundström, C., et al.; Int. […]

[2] = tested on: CCRF-CEM cancer cells - leukemia; experiment: Fluorometric Microculture Cytotoxicity Assay (FMCA), CCRF-CEM; conditions: Homo sapiens, 72 h incubation
Description: as §1, §2
In subsequent experiments, compounds were tested, along with a number of approved cancer drugs (dasatinib, pazopanib, sorafenib, and sunitinib) as described above. Initially, the acute lymphoblastic leukemia cell line CCRF-CEM was used throughout. In the assay plates, medium was added to six empty wells (blank wells) and wells were filled with PBS and cell suspension and served as control wells. SI-values were then calculated for each compound-treated well as described above. All experiments were conducted twice and a new batch of plates was prepared for each experiment.
as §3, §4, §5

[3] = tested on: RPMI 8226 (myeloma); experiment: FMCA, RPMI 8226; conditions: Homo sapiens, RPMI 8226 myeloma cells
Description: as §1, §2, §3, §4, §5
as §6, with “Int. J. Cancer, 1976, 17, 565-577), vincristin-resistant lymphoma (U-937-vcr; see e.g. Botling, J., et al.; Int. J. Cancer, 1994, 58, 269-274), ovarian cancer (A2780; see e.g. Hamilton, T., et al.; Semin. Oncol., 1984, 11, 285-298), doxorubicin-resistant ovarian cancer (A2780/Adr), cisplatin-resistant ovarian cancer (A2780/Cis; see e.g. Behrens, B., et al. Cancer Res. 1987, 47, 414-418), pancreatic cancer (PANC-1, BxPC-3, and MIA PaCa-2; see e.g. Lieber, M., et al.; Int. J. Cancer, 1975, 15, 741-747; Loor, R., et al.; Clin. Lab.” for “Int.”

[4] = tested on: CEM/VM1 (teniposide-resistant leukemia); experiment: FMCA, CEM/VM1; conditions: Homo sapiens, CEM/VM1 teniposide-resistant leukemia cells
Description: as §1, §2, §3, §4, §5
as §6, with “Int. J. Cancer, 1976, 17, 565-577), vincristin-resistant lymphoma (U-937-vcr; see e.g. Botling, J., et al.; Int. J. Cancer, 1994, 58, 269-274), ovarian cancer (A2780; see e.g. Hamilton, T., et al.; Semin. Oncol., 1984, 11, 285-298), doxorubicin-resistant ovarian cancer (A2780/Adr), cisplatin-resistant ovarian cancer (A2780/Cis; see e.g. Behrens, B., et al. Cancer Res. 1987, 47, 414-418), pancreatic cancer (PANC-1, BxPC-3, and MIA PaCa-2; see e.g. Lieber, M., et al.; Int. J. Cancer, 1975, 15, 741-747; Loor, R., et al.; Clin. Lab.” for “Int.”

[5] = tested on: U-937-vcr (vincristin-resistant lymphoma); experiment: FMCA, U-937-vcr; conditions: U-937-vcr vincristin-resistant lymphoma cells
Description: as §1, §2, §3, §4, §5
as §6, with “Int. J. Cancer, 1976, 17, 565-577), vincristin-resistant lymphoma (U-937-vcr; see e.g. Botling, J., et al.; Int. J. Cancer, 1994, 58, 269-274), ovarian cancer (A2780; see e.g. Hamilton, T., et al.; Semin. Oncol., 1984, 11, 285-298), doxorubicin-resistant ovarian cancer (A2780/Adr), cisplatin-resistant ovarian cancer (A2780/Cis; see e.g. Behrens, B., et al. Cancer Res. 1987, 47, 414-418), pancreatic cancer (PANC-1, BxPC-3, and MIA PaCa-2; see e.g. Lieber, M., et al.; Int. J. Cancer, 1975, 15, 741-747; Loor, R., et al.; Clin. Lab.” for “Int.”

[6] = tested on: U-937 (lymphoma); experiment: FMCA, U-937; conditions: Homo sapiens, U-937 lymphoma cells
Description: as §1, §2, §3, §4, §5
as §6, with “Int. J. Cancer, 1976, 17, 565-577), vincristin-resistant lymphoma (U-937-vcr; see e.g. Botling, J., et al.; Int. J. Cancer, 1994, 58, 269-274), ovarian cancer (A2780; see e.g. Hamilton, T., et al.; Semin. Oncol., 1984, 11, 285-298), doxorubicin-resistant ovarian cancer (A2780/Adr), cisplatin-resistant ovarian cancer (A2780/Cis; see e.g. Behrens, B., et al. Cancer Res. 1987, 47, 414-418), pancreatic cancer (PANC-1, BxPC-3, and MIA PaCa-2; see e.g. Lieber, M., et al.; Int. J. Cancer, 1975, 15, 741-747; Loor, R., et al.; Clin. Lab.” for “Int.”

[7] = tested on: A2780/Cis (cisplatin-resistant ovarian cancer); experiment: FMCA, A2780/Cis; conditions: A2780cis, A2780/Cis cisplatin-resistant ovarian cancer cells
Description: as §1, §2, §3, §4, §5
as §6, with “Int. J. Cancer, 1976, 17, 565-577), vincristin-resistant lymphoma (U-937-vcr; see e.g. Botling, J., et al.; Int. J. Cancer, 1994, 58, 269-274), ovarian cancer (A2780; see e.g. Hamilton, T., et al.; Semin. Oncol., 1984, 11, 285-298), doxorubicin-resistant ovarian cancer (A2780/Adr), cisplatin-resistant ovarian cancer (A2780/Cis; see e.g. Behrens, B., et al. Cancer Res. 1987, 47, 414-418), pancreatic cancer (PANC-1, BxPC-3, and MIA PaCa-2; see e.g. Lieber, M., et al.; Int. J. Cancer, 1975, 15, 741-747; Loor, R., et al.; Clin. Lab.” for “Int.”

[8] = tested on: H69AR (doxorubicin-resistant lung cancer); experiment: FMCA, H69AR; conditions: Homo sapiens, H69AR doxorubicin-resistant lung cancer cells
Description: as §1, §2, §3, §4, §5
as §6, with “Int. J. Cancer, 1976, 17, 565-577), vincristin-resistant lymphoma (U-937-vcr; see e.g. Botling, J., et al.; Int. J. Cancer, 1994, 58, 269-274), ovarian cancer (A2780; see e.g. Hamilton, T., et al.; Semin. Oncol., 1984, 11, 285-298), doxorubicin-resistant ovarian cancer (A2780/Adr), cisplatin-resistant ovarian cancer (A2780/Cis; see e.g. Behrens, B., et al. Cancer Res. 1987, 47, 414-418), pancreatic cancer (PANC-1, BxPC-3, and MIA PaCa-2; see e.g. Lieber, M., et al.; Int. J. Cancer, 1975, 15, 741-747; Loor, R., et al.; Clin. Lab.” for “Int.”

[9] = tested on: BxPC-3 (pancreatic cancer); experiment: FMCA, BxPC-3; conditions: Homo sapiens, BxPC-3 pancreatic cancer cells
Description: as §1, §2, §3, §4, §5, §6

[10] = tested on: MIA PaCa-2 (pancreatic cancer); experiment: FMCA, MIA PaCa-2; conditions: Homo sapiens, MIA PaCa-2 pancreatic cancer cells
Description: as §1, §2, §3, §4, §5, §6

[11] = tested on: A2780/Adr (doxorubicin-resistant ovarian cancer); experiment: FMCA, A2780/Adr; conditions: A2780/Adr doxorubicin-resistant ovarian cancer cells
Description: as §1, §2, §3, §4, §5
as §6, with “Int. J. Cancer, 1976, 17, 565-577), vincristin-resistant lymphoma (U-937-vcr; see e.g. Botling, J., et al.; Int. J. Cancer, 1994, 58, 269-274), ovarian cancer (A2780; see e.g. Hamilton, T., et al.; Semin. Oncol., 1984, 11, 285-298), doxorubicin-resistant ovarian cancer (A2780/Adr), cisplatin-resistant ovarian cancer (A2780/Cis; see e.g. Behrens, B., et al. Cancer Res. 1987, 47, 414-418), pancreatic cancer (PANC-1, BxPC-3, and MIA PaCa-2; see e.g. Lieber, M., et al.; Int. J. Cancer, 1975, 15, 741-747; Loor, R., et al.; Clin. Lab.” for “Int.”

[12] = tested on: HL-60 (leukemia); experiment: FMCA, HL-60; conditions: Homo sapiens, HL-60 leukemia cells
Description: as §1, §2, §3, §4, §5, §6

[13] = tested on: PANC-1 (pancreatic cancer); experiment: FMCA, PANC-1; conditions: Homo sapiens, PANC-1 pancreatic cancer cells
Description: as §1, §2, §3, §4, §5, §6

[14] = tested on: 8226/Dox40 (doxorubicin-resistant myeloma); experiment: FMCA, 8226/Dox40; conditions: 8226/Dox40 doxorubicin-resistant myeloma cells
Description: as §1, §2, §3, §4, §5
as §6, with “Int. J. Cancer, 1976, 17, 565-577), vincristin-resistant lymphoma (U-937-vcr; see e.g. Botling, J., et al.; Int. J. Cancer, 1994, 58, 269-274), ovarian cancer (A2780; see e.g. Hamilton, T., et al.; Semin. Oncol., 1984, 11, 285-298), doxorubicin-resistant ovarian cancer (A2780/Adr), cisplatin-resistant ovarian cancer (A2780/Cis; see e.g. Behrens, B., et al. Cancer Res. 1987, 47, 414-418), pancreatic cancer (PANC-1, BxPC-3, and MIA PaCa-2; see e.g. Lieber, M., et al.; Int. J. Cancer, 1975, 15, 741-747; Loor, R., et al.; Clin. Lab.” for “Int.”

[15] = tested on: MDA-MB-231 (breast cancer); experiment: FMCA, MDA-MB-231; conditions: Homo sapiens, MDA-MB-231 breast cancer cells
Description: as §1, §2, §3, §4, §5, §6

[16] = tested on: A2780 (ovarian cancer); experiment: FMCA, A2780; conditions: Homo sapiens, A2780 ovarian cancer cells
Description: as §1, §2, §3, §4, §5
as §6, with “Int. J. Cancer, 1976, 17, 565-577), vincristin-resistant lymphoma (U-937-vcr; see e.g. Botling, J., et al.; Int. J. Cancer, 1994, 58, 269-274), ovarian cancer (A2780; see e.g. Hamilton, T., et al.; Semin. Oncol., 1984, 11, 285-298), doxorubicin-resistant ovarian cancer (A2780/Adr), cisplatin-resistant ovarian cancer (A2780/Cis; see e.g. Behrens, B., et al. Cancer Res. 1987, 47, 414-418), pancreatic cancer (PANC-1, BxPC-3, and MIA PaCa-2; see e.g. Lieber, M., et al.; Int. J. Cancer, 1975, 15, 741-747; Loor, R., et al.; Clin. Lab.” for “Int.”

## COc1ccc2[nH]cc(CCNc3nccc(Nc4ccc5[nH]c(C)cc5c4)n3)c2c1 [Example 4, N^2-[2-(5-methoxy-1H-indol-3-yl)ethyl]-N^4-(2-methyl-1H-indol-5-yl)pyrimidine-2,4-diamine]
[1]
  EC50: 240 nM
[2]
  EC50: 28 nM
[3]
  EC50: 45 nM
[4]
  EC50: 6.6 nM
[5]
  EC50: 28 nM
[6]
  EC50: 13 nM
[7]
  EC50: 25 nM
[8]
  EC50: 23 nM
[9]
  EC50: 37 nM
[10]
  EC50: 14 nM
[11]
  EC50: 140 nM
[12]
  EC50: 9.1 nM
[13]
  EC50: 1600 nM
[14]
  EC50: 110 nM
[15]
  EC50: 100 nM
[16]
  EC50: 33 nM
